Source: patent US8198302B2 (OXiGENE, Inc., priority 2004, dated 2012)

How the values were obtained:
tumor cells = experiment: Tumor cell cytotoxicity, MTT assay; format: cell-based
Procedure: Exponentially growing tumor cells were treated with the following compounds for 24 hours. Insoluble compounds were formulated in a small amount (0.3%) of DMSO for biological evaluation. Cell viability was determined by the calorimetric MTT assay using 3(4,5-dimethylthiazol-2-yl)-2,5-diphenyl-2H-tetrazolium bromide according to well-established procedures (see Berridge, et al. (1996) for a general protocol of this type of assay).

MHEC-5T tumors = experiment: Reduction in tumor blood flow / functional tumor vessels (fluorescent beads); format: in vivo, mice; settings: for reduction in tumor blood flow: 24 hr post-drug
Procedure: (§1) Catechols were dissolved in 50% DMSO (2 mg/kg) prior to intravenous (iv) administration (i.v.) to tumor-bearing mice. MHEC-5T tumors were established by subcutaneous injection of 0.5×10^6 cultured MHEC5-T cells (German Collection of Microorganisms and Cell Culture, Braunschweig, Germany) into the right flank of Fox Chase CB-17 severe combined immunodeficient (SCID) mice. Tumor grafts grew palpable within one week and reached the limited size (15×15 mm) within 10 days. Tumor bearing mice were injected intraperitoneally with saline control or various dosages of CA1P or CA4P after the transplanted tumor reached a size of 300 mm^3 (a size without development of necrosis). Twenty-four hours later they were injected with 0.25 ml of fluorescent FluoSphere beads (0.1 μm beads conjugated with blue fluorescent tag (F-8789, Molecular Probes, Eugene, Oreg.) and diluted 1:6 in physiological saline) in the tail vein, and sacrificed after 3 minutes. Tumors were then excised for cryosections. Cryosections of 8 μm thickness were directly examined under a fluorescent microscope. Functional blood vessels were indicated by blue fluorescence from injected microbeads. For quantification, three sections from three tumors treated in each group were examined and in each section, more than 70% of the area was automatically recorded with a microscopic digital camera at ×10 magnification. A computer program named Stage Pro (Media Cybernetics, Md.) was used to control the picture recording. Image analysis was performed with Image Plus software (Media Cybernetics, Md.). The results were expressed as vessel area per mm^2 in percentage of the control in Table 2.
as §1, with “The effect of CA1P on tumor blood flow was evaluated by quantifying the number of functional tumor vessels” for “Catechols were dissolved”, “treated murine tumors.” for “50% DMSO (2 mg/kg) prior to intravenous (iv) administration (i.v.) to tumor-bearing mice.”, “as in Example 4c.” for “by subcutaneous injection of 0.5×10^6 cultured MHEC5-T cells (German Collection of Microorganisms and Cell Culture, Braunschweig, Germany) into the right flank of Fox Chase CB-17 severe combined immunodeficient (SCID) mice. Tumor grafts grew palpable within one week and reached the limited size (15×15 mm) within 10 days.”, “MD)” for “Md.)”, “MD).” for “Md.).”, “control.” for “control in Table 2.”

[1] = Recovery of CA1 from plasma; format: in vitro ADME; settings: in the presence of ascorbic acid in the extraction mixture
Description: In blood, the ortho catechol CA1 is susceptible to oxidation. […] The recovery of CA1 was resolved by incorporation of ascorbic acid as an antioxidant in the extraction mixture. In the presence of ascorbic acid the recovery of CA1 from plasma was increased to approximately 90%.

[2] = tested on: murine adenocarcinoma CaNT; experiment: Tumor growth control in CaNT murine tumor model; format: in vivo, mice; settings: single doses of 100, 200, and 400 mg/kg i.p., FIG. 5
Procedure: The murine adenocarcinoma CaNT was grown subcutaneously on the back of 12- to 16-week old CBA/Gy fTO mice. Tumors were initiated by the injection of 0.05 ml of a crude tumor cell suspension prepared from a donor mouse. Animals were selected for treatment after 3 or 4 weeks, when tumors had reached a geometric mean diameter of 5 to 6.5 mm. CA1P and CA4P were dissolved in 0.9% saline at various concentrations and injected intraperitoneally into tumor bearing mice. Each treatment group consisted of between five and nine mice. A control treatment group was injected with 0.9% saline.

[3] = tested on: murine adenocarcinoma CaNT; experiment: Functional vascular volume of tumor vessels (Hoechst 333342); format: in vivo, mice; settings: 1 mg/kg i.p. (lowest dose), 24 hours
Procedure: The effect of CA1P on tumor blood flow was evaluated by quantification of the functional volume of tumor vessels in treated murine tumors using a procedure previously described in detail and incorporated by reference herein (Smith K A, Br. J. Cancer, 57:247-253, 1988). The murine adenocarcinoma CaNT was grown subcutaneously on the back of 12- to 16-week old CBA/Gy fTO mice. Tumors were initiated by the injection of 0.05 ml of a crude tumor cell suspension prepared from a donor mouse. Animals were selected for treatment after 3 or 4 weeks, when tumors had reached a geometric mean diameter of 5 to 6.5 mm. CA1P and CA4P were dissolved in 0.9% saline at various concentrations and injected intraperitoneally into tumor bearing mice. Each treatment group consisted of between five and nine mice. A control treatment group was injected with 0.9% saline. At 24 hours post-injection, each mouse was injected intravenously with a 10 mg/kg dose of the fluorescent DNA-binding dye Hoechst 333342 and sacrificed 1 minute later. Tumors were immediately excised and bisected. Frozen tumor sections were cut at three levels and viewed under UV excitation where the fluorescent staining of perivascular cells identified perfused vessels. Vascular volumes were quantified based on a random point scoring system previously described and incorporated by reference herein (Chalkley H W, J. Natl Cancer Institute, 4: 47-53, 1943). All estimates were based on counting 100 fields from sections cut at each of the 3 different levels and the calculated vascular volumes were expressed as a percentage of the mean value for control tumors.

tumor xenografts = experiment: Evaluation of tumor xenografts treated with CA1P; format: in vivo
Description: It is expected that in the highly oxygenated regions of the tumor, such as the tumor rim, that are resistant to tumor blood shutdown, CA1 is readily oxidized to its corresponding quinone, and is able to render a single agent response due to this second mechanism of action.

[4] = Reaction of ortho-quinone with glutathione and ascorbate (stopped-flow, HPLC); format: physicochemical; settings: stopped-flow rapid mixing, FIG. 1A
Description: The formation of each quinone was examined by reacting its corresponding catechol with excess FeCl3/H2SO4 and monitoring the reaction by HPLC. The identity of each quinone was confirmed by HPLC-MS (mass 330, λmax 312, 422 nm).

[5] = Stability of quinone product (TLC and NMR); format: physicochemical; settings: in D7 DMF, following the initiation of the reaction
Procedure: To a solution of Combretastatin A-4 (0.032 g, 0.100 mmol; OXiGENE, Inc.) was added Iodoxybenzoic acid (0.028 g, 0.099 mmol) in D7 DMF (4 ml) with stirring by vortex for ½ hr. Completion of the reaction was indicated by the disappearance of the initial yellowish slurry and the appearance of a clear solution of a deep red color. ^1H-NMR was performed immediately as the quinone product was highly unstable and degraded within a ½ hr following the initiation of the reaction, as indicated by TLC and NMR.

COc1ccc(/C=C\c2cc(OC)c(OC)c(OC)c2)c(O)c1O [CA1, Combretastatin A-1]
IC50 (tumor cells; tumor cells treated for 24 hours): 0.0046 µM | Blood Flow at 10 mg/kg (% vessel area of control) (MHEC-5T tumors; 10 mg/kg, MHEC-5T tumor-bearing SCID mice, 24 hours after dosing): 30 % vessel area of control | recovery [1]: ~90%

COc1cc(/C=C\c2ccc(OC)c(OP(=O)(O)O)c2OP(=O)(O)O)cc(OC)c1OC [CA1P, Combretastatin A-1 diphosphate]
antiproliferative activity against tumor cells in vitro (tumor cells; in comparison to CA4P): inferior | ED50 (vascular effect) (MHEC-5T tumors; functional vessel number per mm^2, i.p., 24 hr, MHEC-5T tumors): 3 mg/kg | blood flow in the peripheral region of tumors (MHEC-5T tumors; periphery = rim of width 10% of the tumor diameter): reduced the blood flow in the peripheral region as well | reduction in tumor blood flow (MHEC-5T tumors; single i.p. injection 3 mg/kg, MHEC-5T tumors): 50% | reduction in tumor blood flow (MHEC-5T tumors; single i.p. injection 6 mg/kg, MHEC-5T tumors): 74% | reduction in tumor blood flow (MHEC-5T tumors; single i.p. injection 50 mg/kg, MHEC-5T tumors): 90% | blood flow in the central region of tumors (MHEC-5T tumors; spatial distribution of blood vessel shutdown): blood flow reduction | effect on tumor growth [2]: significant tumor growth delay | reduction of the percentage of functional vasculature in the tumor [3]: over 50% | tumor cell destruction by location (tumor xenografts): not only destroyed centrally located tumor cells but also cells located at the periphery of the tumor

COC1=CC=C(/C=C\c2cc(OC)c(OC)c(OC)c2)C(=O)C1=O [CA-1 Ortho-Quinone]
reaction with glutathione and ascorbate [4]: react rapidly | time to degradation of quinone product [5]: ½
